This note sets out measurements from patent publication US20140106387A1, “METHOD FOR CONTROLLING NAD(P)/NAD(P)H RATIO BY OXIDOREDUCTASE” (MD BIOALPHA CO., LTD., priority 2006, published 2014).

Experiment [1] has as its system HepG2 cells. The experiment can be described thus: calcium influx (Fluo-4) in HepG2 cells. In kind it is cell-based, human. To be noted: dicoumarol 5 μM pretreated 30 min. The method, then:
Cells were grown on a coverslip in a culture medium for 24 hours, maintained in an RPMI 1640 serum-free medium for 1 hour, and pretreated with a calcium indicator Fluo-4 (5 μM) for 30 min. After pretreatment, the coverslip was mounted on a slide glass. Changes in an intracellular calcium concentration were observed using a fluorescence microscope (Carl Zeiss) for 30 sec, and cells were treated with a candidate compound (e.g. pyran-1,2-naphthoquinone) simultaneously with consecutive imaging of calcium changes using a fluorescence microscope (Carl Zeiss) for 2 sec. […] Changes in the intracellular calcium concentration were observed using a fluorescence microscope (Carl Zeiss) for 30 sec, and cells were treated with pyre-1,2-naphthoquinone (10 μM), followed by continuous shooting of calcium changes using a fluorescence microscope for 2 sec. Using an LSM Image Browser program (Carl Zeiss), 300 images taken for 10 min every 2 seconds were sorted and ordered in a time sequence and plotted on a graph.
For determination of the inner mitochondrial membrane potential (ΔΨm), 20 nM of TMRE (tetramethylrhodamine ethyl ester) as a fluorescent indicator was continuously applied to be loaded on cells. In order to monitor mitochondrial Ca^2+, cells on glass coverslips were loaded with 10 μM Rhod-2 AM via cold loading/warm incubation. In order to monitor cytosolic Ca^2+, cells were co-loaded with 10 μM Fluo-4 AM at 37′C for 30 min. […] Images for TMRE (red fluorescence), Rhod-2 (red fluorescence) and Fluo-4 (green fluorescence) were obtained using an inverted Zeiss 510META laser-scanning confocal microscope equipped with ×63 numerical aperture, 1.4 oil-immersion planapochromat lens. Green fluorescence and red fluorescence were illuminated with light of 488 nm and 543 nm. […]
Cells were cultured for 24 hours and then pre-treated with Fluo-4 for 30 min. Cells immobilized on a coverslip were transferred to a slide glass and treated with pyrano-1,2-naphthoquinone (10 μM), and at the same time images were taken every 2 seconds for 10 min using a fluorescence microscope.

Experiment [2] deals with HepG2 cells. In words: mitochondrial membrane potential (TMRE fluorescence) in HepG2 cells. To be noted: dicoumarol-treated cells. The class given is cell-based, human. The method, then: For determination of the inner mitochondrial membrane potential (ΔΨm), 20 nM of TMRE (tetramethylrhodamine ethyl ester) as a fluorescent indicator was continuously applied to be loaded on cells. In order to monitor mitochondrial Ca^2+, cells on glass coverslips were loaded with 10 μM Rhod-2 AM via cold loading/warm incubation. In order to monitor cytosolic Ca^2+, cells were co-loaded with 10 μM Fluo-4 AM at 37′C for 30 min. The cells were washed twice with a KB solution, and mounted in a perfusion chamber. Fluorescent imaging was taken using a confocal laser scanning microscope (LSM-510 META, Carl Zeiss) at a magnification of ×200 and ×400, in conjunction with appropriate laser lines and a filter set. Image analysis was carried out using LSM-510 META software (Zeiss). Images for TMRE (red fluorescence), Rhod-2 (red fluorescence) and Fluo-4 (green fluorescence) were obtained using an inverted Zeiss 510META laser-scanning confocal microscope equipped with ×63 numerical aperture, 1.4 oil-immersion planapochromat lens. Green fluorescence and red fluorescence were illuminated with light of 488 nm and 543 nm. Incident light was passed through a 545 nm dichroic mirror and observed via a 500 to 530 nm band-pass (green) filter and a 560 nm long-pass (red) barrier filter.
However, such effects were not observed in HEK293 cells. […]

Molecules are shown by their SMILES.

In the case of `O=c1oc2ccccc2c(O)c1Cc1c(O)c2ccccc2oc1=O` [dicoumarol, reference compound], in experiment [1], the “effect on calcium influx by pyrano-1,2-naphthoquinone” value was “inhibited”. The “effects of βL on ΔΨm in dicoumarol-treated cells” value in experiment [2] is on record as “did not exhibit such effects”.
